Reference: patent US8722623B2, “Compositions and methods utilizing fibrin beta chain fragments” (University of Maryland, Baltimore, priority 2007, dated 2014)
“Also recorded” adds a separate entry of the source. No end group written: not given here.

Legend:
[1] = test system: leukocyte (neutrophil) migration into the peritoneum; test: Thioglycollate-induced in vivo peritonitis model of leukocyte migration; parameters: species or system mouse; settings: for inhibition of leukocyte infiltration and migration compared to β15-42: (β15-66)2 8.6 mg/kg, (β15-44)2 5.1 mg/kg; for leukocyte migration / number of leukocytes accumulating in the peritoneum: peptide i.v. prior to i.p. thioglycollate, peritoneal lavage at 4 h, versus PBS control
Experimental: We compared their anti-inflammatory effects in an in vivo peritonitis model, a well established mouse model for leukocyte migration into sites of acute inflammation. In this model, leukocyte migration from the circulation into the peritoneum was stimulated by intraperitoneal (i.p.) injection of thioglycollate, and leukocyte (neutrophil) accumulation was evaluated after 4 hours by measuring the cell number in the peritoneal lavage.
Leukocyte (e.g., neutrophil) infiltration is a hallmark of injury associated with ischemia and reperfusion, as well as a number of other inflammatory conditions. Therefore, peptides of the invention are tested to determine the ability to decrease leukocyte infiltration in vivo. The ability to inhibit leukocyte infiltration was tested in an in vivo model of peritonitis, which is a well established mouse model for leukocyte infiltration and migration into sites of inflammation. The protocol for this animal model is described as below. Experiments were performed consistent with accepted practice (see, for example, Bosse et al. 1994. Eur. J. Immunol. 24: 3019; Borges et al. 1997. Blood 90: 1934; US Patent Application Publication No. 20030105020). To induce peritonitis, thioglycollate was administered intraperitoneally (i.p.) to mice. For inhibition studies, mice were injected intravenously (i.v.) with either β15-42, (β15-44)2, or (β15-66)2 prior to i.p. injection of thioglycollate (FIG. 4). Control mice were treated with the same volume of PBS. All reagents are kept endotoxin-free. At 4 h after injection of thioglycollate, mice were sacrificed and the peritoneal lavage was generated by, for example, injecting 10 ml PBS, massaging the peritoneal wall, and removing the fluid. Following the peritoneal lavage, leukocytes were quantified (e.g., neutrophil quantification determined using a hemocytometer).

VE-cadherin [2] = test: Surface plasmon resonance binding of peptides to immobilized VE-cadherin fragment; settings: for affinity to VE-cadherin (in words): comparison between peptides; for binding to VE-cadherin: added at 400 nM
Experimental: To test binding activities of fibrin beta chain derived peptides of the invention to VE-caherin, surface plasmon resonance (SPR) methods are, for example, used. SPR experiments are performed using, for example, a BIAcore 3000 biosensor (BIAcore AB, Uppsala, Sweden), which can be used to measure the association/dissociation of peptides or proteins in real-time (see, for example, Karlsson, R., and Falt, A. J. Immunol. Methods (1997) 200, 121-133; Hall, D. Anal. Biochem. (2001) 288, 109-125; see also Gorlatov et al. Biochemistry (2002) 41, 4107-4116 for other VE-cadherin binding assays including, for example, SPR IAsys Analysis based assays and ELISA based assays). An exemplary method is described in the following passage. VE-cadherin fragment is covalently coupled via epsilon-amino groups to the activated surface of a CM5 biosensor chip by the procedure described by, for example, Karlsson, R., and Falt, A. (J. Immunol. Methods (1997) 200, 121-133; see also Gorlatov et al. Biochemistry (2002) 41, 4107-4116). Briefly, the carboxyl groups on the sensor surface were activated with an injection of a solution containing, for example, 0.2 M N-ethyl-N-(3-diethylamino-propyl) carbodiimide and 0.05 M N-hydroxysuccinimide. VE-cadherin to be coupled is prepared in 10 mM sodium-acetate buffer, pH 4.0, containing 1 mM CaCl2, and injected onto the activated CM5 surface at 5 mL/min followed by incubation for 7 min after which the surface was deactivated by passing 1 M ethanolamine. Activation time, ligand concentration, and contact time are adjusted to achieve a coupling density of 5-6 ng/mm2. Binding experiments are performed, for example, in 10 mM Hepes buffer, pH 7.4, containing 200 mM NaCl, 1 mM CaCl2, 0.02% NaN3, and 0.05% n-octyl beta-D-glucopyranoside (binding buffer). Samples comprising, for example, fibrin beta chain derived peptides β15-42, β15-64, and (β15-66)2, at different concentrations are injected in duplicate in at least three separate experiments and the association/dissociation between the immobilized and the added peptides is monitored as the change in the SPR response. To regenerate the chip, complete dissociation of the complex was achieved by adding, for example, 20 mM Tris buffer, pH 7.5, containing 0.5 M urea, 0.5 M NaCl, and 0.5% Triton X-100, for 1 min following reequilibration with binding buffer. Experimental data are analyzed using, for example, BIAevaluation 3.0 software supplied with the instrument. Briefly, kinetic constants, kass and kdis, are estimated by global analysis of the association/dissociation curves to the 1:1 Langmurian interaction model (Morton, T. A., and Myszka, D. G. Methods Enzymol. (1998) 295, 268-294). The dissociation equilibrium constant (Kd) is calculated as Kd=kdiss/kass. It is also noted that other methods known to one of ordinary skill in the art can be used to determine binding activities of fibrin beta chain derived peptides of the invention to VE-caherin including, for example, ELISA-based methods (see, for example, Gorlatov et al. Biochemistry (2002) 41, 4107-4116).

ischemic myocardium = test: Coronary artery ligation mouse model of myocardial infarction (ischemia and reperfusion); type: in vivo; settings: MI mice, i.v., about 16 nanomoles
Source text: To confirm the ability of (β15-66)2, (β15-44)2, (β15-40)2, (β15-35)2, and β15-42 to protect (with the former peptides showing increased protection over β15-42) against injury following ischemia and reperfusion an animal model of myocardial infarction (MI) is employed. The effect of the β15-42, (β15-66)2, (β15-44)2, (β15-40)2, and (β15-35)2 (and other fibrin beta chain derived peptides of the invention) on the protection and infiltration and migration of leukocytes into the ischemic myocardium is determined by, for example, using a coronary artery ligation mouse model of MI. To determine the efficacy of these peptides to protect against injury and inhibit leukocyte infiltration and migration into the myocardium following ischemia a fibrin beta chain derived peptide is administered (for example, at a dose of about 16 nanomoles, which can be adjusted accordingly to determine efficacy) i.v. into 8-12 week-old C57BL6 mice (20 to 25 g), for example, prior to left anterior descending (LAD) coronary artery ligation, upon reperfusion, or after reperfusion. Mice injected with PBS are used as controls. […] Administration can be adjusted based on, for example, pharmacodynamic and pharmacokinetic properties.
The study may comprise at least 7 different groups: sham-operated control (group #1), MI mice with no treatment (group #2), and MI mice treated with β15-42 (group #3), (β15-66)2 (group #4), (β15-44)2 (group #5), (β15-40)2 (group #6), and (β15-35)2 (group #7). To ensure objectivity, these experiments are conducted in a double-blind and placebo-controlled manner. Thus, β15-42, (β15-66)2, (β15-44)2, (β15-40)2, (β15-35)2, and PBS are assigned randomly to a reference number, which is blinded to the personnel involved in conducting the surgery and performing post-surgery analysis. […] Leukocyte infiltration into the ischemic myocardium is determined by H&E staining and cardiomyocyte apoptosis is determined by TdT-mediated dUTP Nick-End Labeling (TUNEL) staining. […]

[3] = test system: myocardial ischemia-reperfusion injury; settings: acute or chronic rat models; cited from earlier work
VE-cadherin [4] = molecular target: T1, VE-cadherin (Homo sapiens, UniProt P33151); settings: cited from earlier work
T1 sequence (P33151 48-784): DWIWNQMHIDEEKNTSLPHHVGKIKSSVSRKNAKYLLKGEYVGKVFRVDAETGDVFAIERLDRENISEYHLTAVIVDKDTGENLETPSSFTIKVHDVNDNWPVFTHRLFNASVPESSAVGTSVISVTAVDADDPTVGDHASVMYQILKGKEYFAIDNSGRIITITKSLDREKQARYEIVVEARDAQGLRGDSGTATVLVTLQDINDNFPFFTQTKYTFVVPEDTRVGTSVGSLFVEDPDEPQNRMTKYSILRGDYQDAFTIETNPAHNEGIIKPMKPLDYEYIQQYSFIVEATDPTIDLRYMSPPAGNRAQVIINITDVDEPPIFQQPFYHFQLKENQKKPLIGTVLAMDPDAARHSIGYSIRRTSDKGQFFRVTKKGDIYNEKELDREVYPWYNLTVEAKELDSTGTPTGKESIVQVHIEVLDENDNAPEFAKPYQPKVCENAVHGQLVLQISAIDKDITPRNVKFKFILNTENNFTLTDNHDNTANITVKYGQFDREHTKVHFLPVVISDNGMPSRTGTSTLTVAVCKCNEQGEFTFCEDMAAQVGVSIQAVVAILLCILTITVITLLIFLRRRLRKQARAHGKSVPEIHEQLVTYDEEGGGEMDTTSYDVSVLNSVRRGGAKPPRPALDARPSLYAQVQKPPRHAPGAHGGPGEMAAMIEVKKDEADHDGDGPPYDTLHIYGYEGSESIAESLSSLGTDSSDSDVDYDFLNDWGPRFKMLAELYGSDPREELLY

Substance | inhibition of leukocyte infiltration and migration compared to β15-42 ([1]; peritonitis model, 4 h) | affinity to VE-cadherin (in words) (VE-cadherin [2]) | efficacy compared to β15-42 (ischemic myocardium) | leukocyte migration / number of leukocytes accumulating in the peritoneum [1] | binding to VE-cadherin (VE-cadherin [2]) | other results
(β15-35)2: dimer; monomer GHRPLDKKREEAPSLRPAYCG (SEQ ID NO:7) (GHRPLDKKREEAPSLRPAYCG; also: disulfide-linked homodimer) | even further inhibit leukocyte infiltration and migration | even higher affinity | increased efficacy | – | – | affinity to VE-cadherin compared to both (β15-44)2 and (β15-40)2 (VE-cadherin [2]; FIG. 3): unexpectedly higher degree of affinity
(β15-40)2: dimer; monomer GHRPLDKKREEAPSLRPAPPPISYCG (SEQ ID NO:6) (GHRPLDKKREEAPSLRPAPPPISYCG; also: disulfide-linked homodimer) | even further inhibit leukocyte infiltration and migration | even higher affinity | increased efficacy | – | – | –
(β15-44)2: synthetic dimer; monomer GHRPLDKKREEAPSLRPAPPPISGGGYRCG (SEQ ID NO:5), Cys43-Cys43 disulfide bond (GHRPLDKKREEAPSLRPAPPPISGGGYRCG; also: Cys43-Cys43 disulfide homodimer) | almost twice as much | comparable to that of (β15-66)2; also recorded: even higher affinity | increased efficacy | inhibits leukocyte migration | – | number of leukocytes compared to β15-44 ([1]; peritonitis model, 4 h): decrease in the number of leukocytes; inhibitory effect on leukocyte transmigration compared to (β15-66)2 ([1]; peritonitis model, FIG. 4): superior
thymosin β4 (SDKPDMAEIEKFDKSKLKKTETQEKNPLPSKETIEQEKQAGES; Thymosin beta-4; UniProt P62328 2-44, looked up) [TB4] | – | – | – | inhibits leukocyte migration | – | –
β15-42: peptide which includes amino acid residues 15-42 of the fibrin β chain (GHRPLDKKREEAPSLRPAPPPISGGGYR) [reference compound] | – | weak | – | significantly lower; also recorded: inhibits leukocyte migration | very little binding | myocardial inflammation and infarct size [3]: substantially reduced; competition with fibrin for the interaction with VE-cadherin (VE-cadherin [4]): competes with fibrin for the interaction with VE-cadherin
β15-64: monomeric fibrin β chain residues 15-64 (fibrin βN-domain) [reference compound] | – | – | – | – | very little binding | –
